{
  "source": "paper PMC4109680",
  "about": "“Identification and Preclinical Pharmacology of the γ-Secretase Modulator BMS-869780” (International Journal of Alzheimer's Disease, 2014)",
  "key": {"Aβ1-40 (MEF PS1wt)": {"test_system": "Aβ1-40 (MEF PS1wt)", "assay": "Aβ1-40 ELISA in MEF dKO cultures cotransfected with APP-CTF and human presenilin-1 wild type", "assay_type": "cell-based", "conditions": "wild type human presenilin-1", "procedure": "(§1) H4-APPsw cell cultures were maintained on Dulbecco's modified Eagle's medium (DMEM) supplemented with L-glutamine (2 mM), fetal bovine serum (10%), and G418 (100 μg/mL). […] Aβ1-42 and Aβ1-40 assays, and Notch inhibition assays, were carried out as described previously. Mouse embryonic fibroblasts deficient in PS1 and PS2 (MEF dKO) were passaged twice per week in DMEM/F-12 medium, consisting of a 1 : 1 mixture of DMEM and F-12 nutrient mixture supplemented with 10% fetal bovine serum, penicillin, and streptomycin. For expression of human presenilin-1 in MEF dKO cells, the full length human presenilin-1 cDNA open reading frame was cloned between the BamHI and XhoI sites of the vector pcDNA5/FRT (Invitrogen), placing presenilin-1 expression under the control of the CMV promoter. […]\n(§2) IC50 determinations for Aβ1-42 and Aβ1-40 in H4-APPsw cultures in 384-well format were determined using homogeneous time-resolved fluorescence immunoassays as previously described. […] In other experiments using H4-APPsw cultures, Aβ was quantified by ELISA; for Aβ1-42 the combination of monoclonal antibodies was 26D6 and 565-HRP; for Aβ1-40 it was TSD and 26D6-HRP, and for Aβ1-x it was 4G8 and 26D6-HRP. […] For Aβ in transiently transfected PS1/PS2 dKO fibroblasts, Aβ1-42 was quantified using an ELISA kit (WACO), and Aβ1-40 was quantified by ELISA as described above for H4-APPsw cultures. […]"}, "Aβ1-42 (MEF M146V)": {"test_system": "Aβ1-42 (MEF M146V)", "assay": "Aβ1-42 ELISA in MEF dKO cultures cotransfected with APP-CTF and human presenilin-1 M146V allele", "assay_type": "cell-based", "procedure": "as §1, §2"}, "[1]": {"test_system": "rat brain APP-CTFβ and APP-CTFα", "assay": "Immunoprecipitation and western blot of APP-CTFβ and APP-CTFα from rat brain", "assay_type": "in vivo", "conditions": "oral doses 1.9-235 mg/kg, 24 hours", "procedure": "Rats were given oral doses of BMS-869780, and levels of brain Aβ, βCTF, and αCTF were determined 24 hours later. For comparison, BMS-698861 was dosed in a separate experiment and samples were taken 5 hours later. (a) Brain levels of Aβ1-42 (red), Aβ1-40 (green), Aβ1-38 (blue), and Aβ1-37 (purple) are shown as bars stacked upon one another. The total height of each bar therefore represents the sum of the four peptides. (b) Aβ1-42 (red—left Y axis) and Aβ1-x (grey—right Y axis). The same results for Aβ1-42 are plotted in both (a) and (b). (c) Rat brain βCTF was detected by western blotting of immunoprecipitates from samples of the same rat brains used for Aβ determinations. V, vehicle groups; results from rats dosed with 1.9, 22, 100, and 235 mg/kg of BMS-869780 and 10 mg/kg BMS-698861 (GSI) are indicated. (d) Western blots of immunoprecipitated αCTF from the same rat brain samples. (e) and (f) quantification of western blots shown in (c) and (d), respectively, expressed relative to percent of average level of CTF in vehicle-treated rats. Actual doses of BMS-869780 were determined by analysis of concentrations in left-over dosing solutions. […]"}, "brain Aβ1-42": {"test_system": "brain Aβ1-42", "assay": "Rat time course PK/PD, oral dose, indirect response model", "assay_type": "in vivo", "conditions": "Rat 3 mg/kg PO solution (predicted steady state after 3 daily doses)"}},
  "data": [
    {"compound": "COc1cc(Nc2nc3n(n2)CCCC[C@H]3c2ccc(F)cc2)ccc1-n1cnc(Cl)c1", "note": "[BMS-869780]", "values": [
      {"measurement": "IC50", "setting": "Aβ1-40 (MEF PS1wt)", "result": 11, "unit": "nM"},
      {"measurement": "IC50", "setting": "Aβ1-42 (MEF M146V); Homo sapiens, presenilin-1 M146V allele", "result": 22, "unit": "nM"},
      {"measurement": "Aβ1-42 IC50 in M146V allele relative to wild type presenilin", "setting": "Aβ1-42 (MEF M146V); MEF cultures, higher IC50 (less potent) with M146V", "result": "ca. 3 fold"},
      {"measurement": "rat brain APP-CTFβ and APP-CTFα levels", "setting": "[1]", "result": "Neither APP-CTFβ nor APP-CTFα levels were affected"},
      {"measurement": "Brain Aβ ABEC 24 hr Aβ1-42", "setting": "brain Aβ1-42", "result": 26.9, "unit": "%"},
      {"measurement": "Plasma AUC 0–24 hr", "setting": "brain Aβ1-42", "result": 18.6, "unit": "µM·h"}
    ]}
  ]
}
